Data as given in patent publication US10526320B2, “Pyrrolidine derivatives as PPAR agonists” (GUANGDONG RAYNOVENT BIOTECH CO., LTD., priority 2016, dated 2020).

Each compound was assayed against T1, PPAR Alpha (Homo sapiens, UniProt Q07869) (assay: PathHunter NHR protein interaction / nuclear translocation agonist test, PPAR Alpha). Conditions: agonist mode; read-out: PPAR Alpha EC50.
T1 sequence (Q07869 1-468): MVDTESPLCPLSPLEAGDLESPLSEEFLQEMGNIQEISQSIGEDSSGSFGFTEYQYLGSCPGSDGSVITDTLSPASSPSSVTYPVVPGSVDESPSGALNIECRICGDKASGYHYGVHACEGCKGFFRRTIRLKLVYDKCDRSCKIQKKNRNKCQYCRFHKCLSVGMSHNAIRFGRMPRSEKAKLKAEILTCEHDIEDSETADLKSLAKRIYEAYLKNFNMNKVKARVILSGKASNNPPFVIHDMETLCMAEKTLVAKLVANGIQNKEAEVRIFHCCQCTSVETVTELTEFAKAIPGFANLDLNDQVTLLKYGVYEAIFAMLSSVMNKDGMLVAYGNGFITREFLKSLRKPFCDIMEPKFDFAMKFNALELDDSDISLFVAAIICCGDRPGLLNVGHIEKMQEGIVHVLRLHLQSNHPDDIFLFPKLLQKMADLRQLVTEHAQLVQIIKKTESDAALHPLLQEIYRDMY
Format: cell-based
For CSc1ccc(C(=O)C2CN(C(=O)Oc3ccc(Cl)cc3)CC2c2cc(C)c(OC(C)(C)C(=O)O)c(C)c2)cc1 (single isomer, unassigned) [Compound 13], the EC50 was < 0.1 µM. For Cc1cc(CC2CN(C(=O)Oc3ccccc3)CC2C(=O)c2ccc(F)cc2)cc(C)c1OC(C)(C)C(=O)O (single isomer, unassigned) [Compound 69], the EC50 was < 0.1 µM. For CSc1ccc(C(=O)[C@@H]2CN(C(=O)Oc3ccc(Cl)cc3Cl)C[C@H]2c2cc(C)c(OC(C)(C)C(=O)O)c(C)c2)cc1 (single isomer, unassigned) [Compound 41], the EC50 was < 0.1 µM. CSc1ccc(C(=O)[C@H]2CN(C(=O)Nc3ccc(Cl)cc3)C[C@@H]2c2cc(C)c(OC(C)(C)C(=O)O)c(C)c2)cc1 (racemic) [Compound 37] was tested, and the EC50 was < 0.1 µM. Work on CSc1ccc(C(=O)C2CN(S(N)(=O)=O)CC2c2cc(C)c(OC(C)(C)C(=O)O)c(C)c2)cc1 (single isomer, unassigned) [Compound 19] yielded an EC50 of 0.2 to 0.25 µM. For CSc1ccc(C(=O)[C@H]2CN(C(=O)Cc3ccc(Cl)cc3)C[C@@H]2c2cc(C)c(OC(C)(C)C(=O)O)c(C)c2)cc1 (racemic) [Compound 36], the EC50 was < 0.1 µM.

Same assay, conditions: read-out: PPAR Alpha Maximum Activation Response %
For CSc1ccc(C(=O)C2CN(C(=O)Oc3ccc(Cl)cc3)CC2c2cc(C)c(OC(C)(C)C(=O)O)c(C)c2)cc1 (single isomer, unassigned) [Compound 13], the Emax was 50 to 80%. Cc1cc(CC2CN(C(=O)Oc3ccccc3)CC2C(=O)c2ccc(F)cc2)cc(C)c1OC(C)(C)C(=O)O (single isomer, unassigned) [Compound 69] was tested, and the Emax was 80 to 100%. CSc1ccc(C(=O)[C@@H]2CN(C(=O)Oc3ccc(Cl)cc3Cl)C[C@H]2c2cc(C)c(OC(C)(C)C(=O)O)c(C)c2)cc1 (single isomer, unassigned) [Compound 41] was tested, and the Emax was 80 to 100%. CSc1ccc(C(=O)[C@H]2CN(C(=O)Nc3ccc(Cl)cc3)C[C@@H]2c2cc(C)c(OC(C)(C)C(=O)O)c(C)c2)cc1 (racemic) [Compound 37] was tested, and the Emax was 80 to 100%. For CSc1ccc(C(=O)C2CN(S(N)(=O)=O)CC2c2cc(C)c(OC(C)(C)C(=O)O)c(C)c2)cc1 (single isomer, unassigned) [Compound 19], the Emax was 80 to 100%. CSc1ccc(C(=O)[C@H]2CN(C(=O)Cc3ccc(Cl)cc3)C[C@@H]2c2cc(C)c(OC(C)(C)C(=O)O)c(C)c2)cc1 (racemic) [Compound 36] gave an Emax of 80 to 100%.

Each compound was assayed against T2, PPAR Delta (Homo sapiens, UniProt Q03181) (assay: PathHunter NHR protein interaction / nuclear translocation agonist test, PPAR Delta). Conditions: agonist mode; read-out: PPAR Delta EC50.
T2 sequence (Q03181 1-441): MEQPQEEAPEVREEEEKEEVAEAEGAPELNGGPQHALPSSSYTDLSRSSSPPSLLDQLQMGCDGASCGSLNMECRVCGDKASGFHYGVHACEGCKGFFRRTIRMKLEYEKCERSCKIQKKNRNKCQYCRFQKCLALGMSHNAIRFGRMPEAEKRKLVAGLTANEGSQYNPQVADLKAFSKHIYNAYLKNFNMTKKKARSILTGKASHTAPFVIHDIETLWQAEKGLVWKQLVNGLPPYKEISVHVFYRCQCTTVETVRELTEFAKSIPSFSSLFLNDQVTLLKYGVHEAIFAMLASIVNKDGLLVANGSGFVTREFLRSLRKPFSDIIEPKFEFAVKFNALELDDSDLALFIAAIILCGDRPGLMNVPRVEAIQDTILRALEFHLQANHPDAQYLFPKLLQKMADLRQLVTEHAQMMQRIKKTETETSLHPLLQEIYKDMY
Format: cell-based
For CSc1ccc(C(=O)C2CN(C(=O)Oc3ccc(Cl)cc3)CC2c2cc(C)c(OC(C)(C)C(=O)O)c(C)c2)cc1 (single isomer, unassigned) [Compound 13], the EC50 was < 0.1 µM. In the case of Cc1cc(CC2CN(C(=O)Oc3ccccc3)CC2C(=O)c2ccc(F)cc2)cc(C)c1OC(C)(C)C(=O)O (single isomer, unassigned) [Compound 69], the EC50 is reported as < 0.1 µM. For CSc1ccc(C(=O)[C@@H]2CN(C(=O)Oc3ccc(Cl)cc3Cl)C[C@H]2c2cc(C)c(OC(C)(C)C(=O)O)c(C)c2)cc1 (single isomer, unassigned) [Compound 41], the EC50 was < 0.1 µM. In the case of CSc1ccc(C(=O)[C@H]2CN(C(=O)Nc3ccc(Cl)cc3)C[C@@H]2c2cc(C)c(OC(C)(C)C(=O)O)c(C)c2)cc1 (racemic) [Compound 37], the EC50 is reported as 0.2 to 0.25 µM. CSc1ccc(C(=O)C2CN(S(N)(=O)=O)CC2c2cc(C)c(OC(C)(C)C(=O)O)c(C)c2)cc1 (single isomer, unassigned) [Compound 19] was tested, and the EC50 was > 0.25 µM. In the case of CSc1ccc(C(=O)[C@H]2CN(C(=O)Cc3ccc(Cl)cc3)C[C@@H]2c2cc(C)c(OC(C)(C)C(=O)O)c(C)c2)cc1 (racemic) [Compound 36], the EC50 is reported as > 0.25 µM.

Same assay, conditions: read-out: PPAR Delta Maximum Activation Response %
CSc1ccc(C(=O)C2CN(C(=O)Oc3ccc(Cl)cc3)CC2c2cc(C)c(OC(C)(C)C(=O)O)c(C)c2)cc1 (single isomer, unassigned) [Compound 13] showed an Emax of 50 to 80%. Compound CSc1ccc(C(=O)[C@H]2CN(C(=O)Nc3ccc(Cl)cc3)C[C@@H]2c2cc(C)c(OC(C)(C)C(=O)O)c(C)c2)cc1 (racemic) [Compound 37] has an Emax of 50 to 80%.

Same assay, conditions: relative to known PPARδ agonist L-165,041 = 100%; read-out: PPAR Delta Maximum Activation Response %
Cc1cc(CC2CN(C(=O)Oc3ccccc3)CC2C(=O)c2ccc(F)cc2)cc(C)c1OC(C)(C)C(=O)O (single isomer, unassigned) [Compound 69] was tested, and the Emax was 80 to 100%. CSc1ccc(C(=O)[C@@H]2CN(C(=O)Oc3ccc(Cl)cc3Cl)C[C@H]2c2cc(C)c(OC(C)(C)C(=O)O)c(C)c2)cc1 (single isomer, unassigned) [Compound 41] was tested, and the Emax was 80 to 100%. Compound CSc1ccc(C(=O)C2CN(S(N)(=O)=O)CC2c2cc(C)c(OC(C)(C)C(=O)O)c(C)c2)cc1 (single isomer, unassigned) [Compound 19] has an Emax of 50 to 80%. With CSc1ccc(C(=O)[C@H]2CN(C(=O)Cc3ccc(Cl)cc3)C[C@@H]2c2cc(C)c(OC(C)(C)C(=O)O)c(C)c2)cc1 (racemic) [Compound 36] the Emax was 50 to 80%.

What follows are compounds tested against T3, PPAR Gamma (Homo sapiens, UniProt P37231) (assay: PathHunter NHR protein interaction / nuclear translocation agonist test, PPAR Gamma). Conditions: agonist mode; read-out: PPAR Gamma EC50.
T3 sequence (P37231 1-505): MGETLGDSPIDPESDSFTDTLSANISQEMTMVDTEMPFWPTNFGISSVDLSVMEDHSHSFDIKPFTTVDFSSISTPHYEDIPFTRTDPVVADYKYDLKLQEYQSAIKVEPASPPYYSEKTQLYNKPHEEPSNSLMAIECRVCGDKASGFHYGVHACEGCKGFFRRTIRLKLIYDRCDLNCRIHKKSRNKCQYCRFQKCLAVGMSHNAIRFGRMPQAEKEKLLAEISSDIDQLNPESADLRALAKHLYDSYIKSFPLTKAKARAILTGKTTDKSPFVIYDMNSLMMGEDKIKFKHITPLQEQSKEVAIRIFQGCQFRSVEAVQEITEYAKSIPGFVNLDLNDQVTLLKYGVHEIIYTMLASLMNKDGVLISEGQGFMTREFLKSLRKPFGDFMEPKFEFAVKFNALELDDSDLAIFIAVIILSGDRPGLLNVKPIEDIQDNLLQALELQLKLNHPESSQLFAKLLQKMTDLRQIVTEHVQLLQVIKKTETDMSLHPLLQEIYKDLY
Format: cell-based
In the case of CSc1ccc(C(=O)C2CN(C(=O)Oc3ccc(Cl)cc3)CC2c2cc(C)c(OC(C)(C)C(=O)O)c(C)c2)cc1 (single isomer, unassigned) [Compound 13], the EC50 is reported as > 0.25 µM. Work on Cc1cc(CC2CN(C(=O)Oc3ccccc3)CC2C(=O)c2ccc(F)cc2)cc(C)c1OC(C)(C)C(=O)O (single isomer, unassigned) [Compound 69] yielded an EC50 of 0.15 to 0.2 µM.

Same assay, conditions: read-out: PPAR Gamma Maximum Activation Response %
With CSc1ccc(C(=O)C2CN(C(=O)Oc3ccc(Cl)cc3)CC2c2cc(C)c(OC(C)(C)C(=O)O)c(C)c2)cc1 (single isomer, unassigned) [Compound 13] the Emax was 80 to 100%.

Same assay, conditions: relative to known PPARγ agonist Troglitazone = 100%; read-out: PPAR Gamma Maximum Activation Response %
Cc1cc(CC2CN(C(=O)Oc3ccccc3)CC2C(=O)c2ccc(F)cc2)cc(C)c1OC(C)(C)C(=O)O (single isomer, unassigned) [Compound 69] showed an Emax of 80 to 100%.
